Results: US6951658B1, “Emu-based compositions for mental well-being and method of use” (Pearson Research & Development Limited, priority 2003, dated 2005)

Experiments:
[1] = rats; cited from earlier work
[2] = multi-infarct dementia patients; cited from earlier work
[3] = humans; cited from earlier work
[4] = subjects with age-related memory decline, 60 days of treatment; cited from earlier work
[5] = side effects in the Example 2 patient; assay type: in vivo, human; conditions: Example 2, person, oral
Description: Example 2 Mature human ingests 7 to 10 drops of emu oil per day, […].

SMILES	anti-anxiety effects [1]	memory and learning [1]	attention [2]	consolidation of memory [2]	psychological tests of short-term retrieval, long-term retrieval and long-term storage of memory [2]	alcohol-induced memory deficits [3]	verbal memory functions [4]	side effects [5]
O=C(O)[C@@H]1CCC(O)=N1 [pyroglutamate, 2-oxo-pyrrolidone carboxylic acid]	has anti-anxiety effects	improves memory and learning	significant increase of attention	statistically significant improvement	improvement	effective	effective in improving verbal memory functions	
CC[C@H](C)C(=O)O[C@H]1C[C@@H](C)C=C2C=C[C@H](C)[C@H](CC[C@@H]3C[C@@H](O)CC(=O)O3)[C@H]21 [Mevocore]								has suffered side effects, including hair loss
